Reference: patent publication EP0745595A1, “3-(3-Aryloxyphenyl)-1-(substituted methyl)-s-triazine-2,4,6-oxo or thiotrione herbicidal agents” (American Cyanamid Company, priority 1995, dated 1996)

How the values were obtained:
Type in all cases: in vivo
[1] = tested on: AMBROSIA ARTEMISIIFOLIA, L.; assay: Preemergence herbicidal evaluation, AMBEL (Ragweed, Common); settings: for AMBEL herbicidal rating: rated four to five weeks after treatment
How it was run: (§1)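 First, seeds in potting soil are sown atop soil in cups. Next, the surface is sprayed with test compound in aqueous acetone at roughly 0.125 to 0.50 kg per hectare. After four to five weeks of greenhouse care, each cup is scored 0-9 against a control.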

SCIRPUS JUNCOIDES = assay: Preemergence evaluation in the presence of transplanted rice under flooded paddy conditions (Example 43), SCPJU (Bulrush, Japanese); parameters: key: visual rating on a 0-9 scale, compared with control; settings: applied three days after sowing, 25 to 30 days after treatment
Description: (§2) Results of herbicide evaluation are expressed on a rating scale (0-9). The scale is based upon a visual observation of plant stand, vigor, malformation, size, chlorosis and overall plant appearance as compared with a control.
(§3) In this example, Deluvian paddy soil (Toyokawa paddy soil) is placed in plastic pots, 100cm^2 x 9 cm in depth. Water is added to the level of the soil surface in the pot and the mixture is paddled 3 cm in depth.
(§4) Pots are then variously sown with monocotyledenous weed seeds and tubers at 0-2 cm in soil depth, as well as transplanted rice plants at the 2.5 leaf stage. The rice plants are transplanted at about 3 cm soil depth. Water is then added to all of the pots to 3 cm deep and kept at a depth of 3 cm for the duration of the test. Test compounds are applied in the manner described in Example 42 three days after transplanting the rice plants and sowing the weed seeds and tubers. The pots are then placed on greenhouse benches and cared for in the conventional manner. Tests are examined at 25 to 30 days after treatment and rated according to the rating system provided in Example 40. The compounds evaluated are reported by compound number given in Example 40.

[…] = Preemergence evaluation in the presence of transplanted rice under flooded paddy conditions (Example 43), MOOVA (Monochoria); settings: applied three days after sowing, 25 to 30 days after treatment
Description: as §2, §3, §4

CYPERUS DIFFORMIS = assay: Preemergence evaluation in the presence of transplanted rice under flooded paddy conditions (Example 43), CYPDI (Flatsedge, smallflower); parameters: key: visual rating on a 0-9 scale, compared with control; settings: applied three days after sowing, 25 to 30 days after treatment
Description: as §2, §3, §4

SAGITTARIA PYGMAEA = assay: Preemergence evaluation in the presence of transplanted rice under flooded paddy conditions (Example 43), SAGPY (Arrowhead (Pygmaea)); parameters: key: visual rating on a 0-9 scale, compared with control; settings: applied three days after sowing, 25 to 30 days after treatment
Description: as §2, §3, §4

ECHINOCHLOA CRUS-GALLI = assay: Preemergence evaluation in the presence of transplanted rice under flooded paddy conditions (Example 43), ECHCG (Barnyard Grass); parameters: key: visual rating on a 0-9 scale, compared with control; settings: applied three days after sowing, 25 to 30 days after treatment
Description: as §2, §3, §4

[2] = tested on: ORYZA SATIVA, L. CV. KOSHIHIKARI; assay: Post-transplant rice evaluation under flooded paddy conditions (Example 43), ORYSAK (Rice, Koshihikari); parameters: key: visual rating on a 0-9 scale, compared with control; settings: applied three days after transplanting rice, 25 to 30 days after treatment
Description: as §2, §3, §4

[3] = tested on: ECHINOCHLOA CRUS-GALLI, (L) BEAU; assay: Preemergence herbicidal evaluation, ECHCG (Barnyardgrass); settings: rated four to five weeks after treatment
How it was run: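 Barnyardgrass seeds were mixed with potting soil and planted on about one inch of soil in pint cups for preemergence testing. Treated cups were kept on greenhouse benches, watered and maintained by standard greenhouse practice. After four to five weeks, each cup was visually rated on a 0-9 scale against an untreated control.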

[4] = tested on: SETARIA VIRIDIS, (L) BEAU; assay: Preemergence herbicidal evaluation, SETVI (Foxtail, Green); settings: rated four to five weeks after treatment
How it was run: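 Seeds of green foxtail (Setaria viridis) were mixed with potting soil and sown on top of roughly one inch of soil in pint cups for a preemergence herbicide test. Treated cups were kept on greenhouse benches, watered, and cared for conventionally. Four to five weeks after treatment, plants were rated visually on a 0-9 scale against a control.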

[5] = tested on: ABUTILON THEOPHRASTI, MEDIC.; assay: Preemergence herbicidal evaluation, ABUTH (Velvetleaf); settings: rated four to five weeks after treatment
How it was run: as §1

IPOMOEA SPP. = assay: Preemergence herbicidal evaluation, IPOSS (Morningglory spp.); settings: rated four to five weeks after treatment
How it was run: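 Seeds of morningglory (Ipomoea spp.) were mixed with potting soil and sown on roughly one inch of soil in pint cups for a preemergence herbicide test. The cups were put on greenhouse benches, watered, and maintained by standard greenhouse practice. Four to five weeks after treatment each cup was scored visually on a 0-9 scale against a control.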

[6] = tested on: ORYZA SATIVA, L. TEBONNET; assay: Preemergence herbicidal evaluation, ORYSAT (Rice, Tebonnet); settings: rated four to five weeks after treatment
How it was run: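 Seeds of rice (Oryza sativa, Tebonnet) were mixed with potting soil and sown on about one inch of soil in pint cups, then treated preemergence. Cups sat on greenhouse benches, watered and tended by standard greenhouse practice. Four to five weeks after treatment, plants were visually scored on a 0-9 scale relative to a control.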

[7] = tested on: TRITICUM AESTIVUM, CV. APOLLO; assay: Preemergence herbicidal evaluation, TRZAWO (Wheat, Winter, CV. APOLLO); settings: rated four to five weeks after treatment
How it was run: as §1

Cn1c(=O)[nH]c(=O)n(-c2cc(Oc3c(F)cc(C(F)(F)F)cc3Cl)ccc2F)c1=O [C, reference compound]
AMBEL ([1]; Rate 0.031 kg/ha): 0.0
AMBEL ([1]; Rate 0.063 kg/ha): 0.0
AMBEL ([1]; Rate 0.125 kg/ha): 0.0
AMBEL ([1]; Rate 0.250 kg/ha): 0.0

COC(=O)Cn1c(=O)n(C)c(=O)n(-c2cc(Oc3c(F)cc(C(F)(F)F)cc3Cl)ccc2F)c1=O [Compound 4, Methyl 3-{5-[(2-chloro-α,α,α,6-tetrafluoro-p-tolyl)oxy]-2-fluorophenyl}tetrahydro-5-methyl-2,4,6-trioxo-s-triazine-1(2H)-acetate]
Herbicidal effect rating, SCPJU (SCIRPUS JUNCOIDES; 0.032 kg/ha): 7.0
Herbicidal effect rating, SCPJU (SCIRPUS JUNCOIDES; 0.063 kg/ha): 9.0
Herbicidal effect rating, SCPJU (SCIRPUS JUNCOIDES; 0.125 kg/ha): 9.0
Herbicidal effect rating, SCPJU (SCIRPUS JUNCOIDES; 0.250 kg/ha): 9.0
Herbicidal effect rating, MOOVA ([…]; 0.032 kg/ha): 9.0
Herbicidal effect rating, MOOVA ([…]; 0.063 kg/ha): 9.0
Herbicidal effect rating, MOOVA ([…]; 0.125 kg/ha): 9.0
Herbicidal effect rating, MOOVA ([…]; 0.250 kg/ha): 9.0
Herbicidal effect rating, CYPDI (CYPERUS DIFFORMIS; 0.032 kg/ha): 9.0
Herbicidal effect rating, CYPDI (CYPERUS DIFFORMIS; 0.063 kg/ha): 9.0
Herbicidal effect rating, CYPDI (CYPERUS DIFFORMIS; 0.125 kg/ha): 9.0
Herbicidal effect rating, CYPDI (CYPERUS DIFFORMIS; 0.250 kg/ha): 9.0
Herbicidal effect rating, SAGPY (SAGITTARIA PYGMAEA; 0.032 kg/ha): 0.0
Herbicidal effect rating, SAGPY (SAGITTARIA PYGMAEA; 0.063 kg/ha): 2.0
Herbicidal effect rating, SAGPY (SAGITTARIA PYGMAEA; 0.125 kg/ha): 6.0
Herbicidal effect rating, SAGPY (SAGITTARIA PYGMAEA; 0.250 kg/ha): 9.0
Herbicidal effect rating, ECHCG (ECHINOCHLOA CRUS-GALLI; 0.032 kg/ha): 9.0
Herbicidal effect rating, ECHCG (ECHINOCHLOA CRUS-GALLI; 0.063 kg/ha): 9.0
Herbicidal effect rating, ECHCG (ECHINOCHLOA CRUS-GALLI; 0.125 kg/ha): 9.0
Herbicidal effect rating, ECHCG (ECHINOCHLOA CRUS-GALLI; 0.250 kg/ha): 9.0
Herbicidal effect rating, ORYSAK ([2]; 0.032 kg/ha): 1.0
Herbicidal effect rating, ORYSAK ([2]; 0.063 kg/ha): 4.0
Herbicidal effect rating, ORYSAK ([2]; 0.125 kg/ha): 7.0
Herbicidal effect rating, ORYSAK ([2]; 0.250 kg/ha): 9.0

COC(=O)Cn1c(=O)n(C)c(=O)n(-c2cc(Oc3ccc(SC)cc3Cl)ccc2[N+](=O)[O-])c1=O [Compound 34, Methyl 3-{5-[2-chloro-4-(methylthio)-phenoxy]-2-nitrophenyl}tetrahydro-5-methyl-2,4,6-trioxo-s-triazine-1(2H)-acetate]
ECHCG herbicidal rating ([3]; Rate 0.125 kg/ha): 0.0
ECHCG herbicidal rating ([3]; Rate 0.250 kg/ha): 0.0
ECHCG herbicidal rating ([3]; Rate 0.500 kg/ha): 0.0
SETVI herbicidal rating ([4]; Rate 0.125 kg/ha): 0.0
SETVI herbicidal rating ([4]; Rate 0.250 kg/ha): 0.0
SETVI herbicidal rating ([4]; Rate 0.500 kg/ha): 0.0
ABUTH herbicidal rating ([5]; Rate 0.125 kg/ha): 0.0
ABUTH herbicidal rating ([5]; Rate 0.250 kg/ha): 0.0
ABUTH herbicidal rating ([5]; Rate 0.500 kg/ha): 0.0
IPOSS herbicidal rating (IPOMOEA SPP.; Rate 0.125 kg/ha): 0.0
IPOSS herbicidal rating (IPOMOEA SPP.; Rate 0.250 kg/ha): 0.0
IPOSS herbicidal rating (IPOMOEA SPP.; Rate 0.500 kg/ha): 0.0
ORYSAT herbicidal rating ([6]; Rate 0.125 kg/ha): 0.0
ORYSAT herbicidal rating ([6]; Rate 0.250 kg/ha): 0.0
ORYSAT herbicidal rating ([6]; Rate 0.500 kg/ha): 0.0
AMBEL herbicidal rating ([1]; Rate 0.125 kg/ha): 0.0
AMBEL herbicidal rating ([1]; Rate 0.250 kg/ha): 0.0
AMBEL herbicidal rating ([1]; Rate 0.500 kg/ha): 0.0
TRZAWO herbicidal rating ([7]; Rate 0.125 kg/ha): 0.0
TRZAWO herbicidal rating ([7]; Rate 0.250 kg/ha): 0.0
TRZAWO herbicidal rating ([7]; Rate 0.500 kg/ha): 0.0
